Laboratory results published in patent publication US10154976B2, “System and method for delivering protease inhibitors” (Bordoloi Biotech, LLC, priority 2013, dated 2018).

What was measured:
plasmin [1] = target: T1, plasmin (Homo sapiens, UniProt P00747); experiment: Gravimetric fibrin clot degradation in plasmin medium freshly exchanged every 24 hours;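 also: fibrin clots formed from bovine fibrinogen and thrombin in 96-well plates, weighed each day after plasmin exposure, percent degradation relative to original clot weight, with PBS-only no-plasmin controls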
Description: Also, a gravimetric in vitro method has been developed for a degradation study of a fibrin sealant in a plasmin medium at pH 7.4 and 37° C., where the medium has been freshly exchanged every twenty-four hours. Further investigation into the described degradation of fibrin sealant was undertaken for up to four consecutive days.
A preparation of fibrinogen solution was prepared as described herein: • 1. Prepared a 10 percent solution of fibrinogen by dissolving 1.4 gms of bovine fibrinogen (Sigma F8630) in 14 ml of PBS. The solution was incubated at 37° C. with occasional swirling for 1 hour or till fibrinogen is completely dissolved. • 2. Molecular weight of TA is 157 grams. Three and half millimolar (0.55 mg TA/ml) suspension of 5 percent and 30 percent TA/PLGA were prepared by dispersing 50 mg of 5 percent loaded TA/PLGA and 8.3 mg of 30 percent loaded TA/PLGA in 4.5 ml of 10 percent fibrinogen solution, respectively, Table 7. A 10 percent Fibrinogen solution without TA was used as the negative control.
Next, the fibrin clots in the ninety-six well plate were prepared as follows: • 1. Two and a half mg of Thrombin (600 units/mg) were dissolved in 1 ml of 375 mM CaCl2 solution in PBS (1500 U/ml). Seven microliters (10.5 U) were added to each well of the labeled 96 well plates. • 3. The fibrinogen solutions (with no TA/PLGA that is 0 percent, 5 percent loaded TA/PLGA and 30 percent loaded TA/PLGA) were mixed well and 100 microliter aliquots of 10 percent fibrinogen with or without TA/PLGA were added to the wells containing thrombin solution. […] The plates were incubated at 37° C. temperature for one hour. Final concentration of CaCl2 was 25 mM. The plate was stored at 4° C. overnight after the clot was formed.
Next, plasmin was added to the fibrin clots to begin the enzymatic degradation of the fibrin clots by plasmin as described herein: • 1. A 300× plasmin solution was prepared by dissolving 500 micrograms in 500 microliter PBS. A 2× stock was prepared by diluting 150 times in PBS and adding 100 microliters to each well of the 96 well plate. The final 1× concentration was 3.3 micrograms/ml in the solution. A no-plasmin PBS only control was used for each condition. • 2. Incubation was at 37° C. At every 24 hours, the 96 well plate was centrifuged at 1,000 rpm for five minutes at room temperature. The supernatant plasmin solutions were aspirated out from each well with micropipette leaving the clots at the bottom of the well. • 3. A set of fibrin clots for each condition each day were taken out for measuring their degradation by plasmin by weighing. Fresh 100 microliter of plasmin solution was added to the rest of the clots. Fibrin clots were removed for measuring their weights each day until the clots were completely degraded in the wells.
Data was collected as follows: • 1. The clots were picked up from the well with a pair of forceps and weighed. The percent degradation was calculated by 100−(Average wt of the plasmin treated clot/actual weight of the clot×100). • 2. The clots were placed on a glass slide and photographed.
The clot or sealant was exchanged with fresh plasmin solution of 3.3 micrograms/ml every 24 hours.
The clots were irrigated and exchanged with fresh plasmin solution of 3.3 micrograms/ml every 24 hours.

fibrin clot = experiment: Fibrin clot weight in a medium containing no plasmin (PBS only); design: species or system Bovine; conditions: 3 percent Ca-TA but without any plasmin; by Day-3 and Day-4
Description: Incubated at 37 C. […] Repeated till the clots completely disappeared.

plasmin [2] = target: T1, plasmin; experiment: Gravimetric fibrin clot degradation by plasmin, single 48 hour incubation; type: biochemical; design: TA delays the conversion of plasminogen to plasmin; purchased Sigma P1867
[3] = Day 0, 3 percent Ca-TA (169.5 mE, 30 mg/ml), no PLGA, plasmin 3.3 μg/ml exchanged every 24 hours, pH 7.4, 37° C.
[4] = Day 1, 3 percent Ca-TA, no PLGA, plasmin 3.3 μg/ml exchanged every 24 hours, pH 7.4, 37° C.
[5] = Day 2, 3 percent Ca-TA, no PLGA, plasmin 3.3 μg/ml exchanged every 24 hours, pH 7.4, 37° C.
[6] = Day 3, 3 percent Ca-TA, no PLGA, plasmin 3.3 μg/ml exchanged every 24 hours, pH 7.4, 37° C.
[7] = Day 4, 3 percent Ca-TA, no PLGA, plasmin 3.3 μg/ml exchanged every 24 hours, pH 7.4, 37° C.
[8] = TA 0.10 mM, plasmin 6.6 μg/ml, 37° C., 48 hours
[9] = TA 0.25 mM, plasmin 6.6 μg/ml, 37° C., 48 hours
[10] = TA 0.50 mM, plasmin 6.6 μg/ml, 37° C., 48 hours
[11] = TA 1.00 mM, plasmin 6.6 μg/ml, 37° C., 48 hours
[12] = Day 0, Aprotinin 1500 KIU without PLGA-2, plasmin 3.3 micrograms/ml fresh every 24 hours, 37 C
[13] = Day 1, Aprotinin 1500 KIU without PLGA-2, plasmin 3.3 micrograms/ml fresh every 24 hours, 37 C
[14] = Day 2, Aprotinin 1500 KIU without PLGA-2, plasmin 3.3 micrograms/ml fresh every 24 hours, 37 C
[15] = Day 3, Aprotinin 1500 KIU without PLGA-2, plasmin 3.3 micrograms/ml fresh every 24 hours, 37 C
[16] = Day 4, Aprotinin 1500 KIU without PLGA-2, plasmin 3.3 micrograms/ml fresh every 24 hours, 37 C

T1 sequence (P00747 97-580 limits assumed): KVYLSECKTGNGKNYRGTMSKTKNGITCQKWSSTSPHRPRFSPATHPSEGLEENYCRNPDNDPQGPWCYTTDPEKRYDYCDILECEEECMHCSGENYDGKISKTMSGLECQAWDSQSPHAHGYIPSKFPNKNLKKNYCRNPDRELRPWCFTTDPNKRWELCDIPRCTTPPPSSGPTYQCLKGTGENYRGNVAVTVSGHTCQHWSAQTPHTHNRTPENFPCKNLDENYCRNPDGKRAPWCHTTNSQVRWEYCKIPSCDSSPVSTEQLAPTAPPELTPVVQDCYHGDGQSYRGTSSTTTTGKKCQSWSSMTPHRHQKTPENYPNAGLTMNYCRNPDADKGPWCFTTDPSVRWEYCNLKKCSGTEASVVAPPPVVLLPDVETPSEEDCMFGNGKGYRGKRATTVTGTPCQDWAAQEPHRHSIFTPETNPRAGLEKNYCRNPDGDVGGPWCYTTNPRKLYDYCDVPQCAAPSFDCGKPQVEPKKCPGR
T1 sequence (P00747 581-810 limits assumed): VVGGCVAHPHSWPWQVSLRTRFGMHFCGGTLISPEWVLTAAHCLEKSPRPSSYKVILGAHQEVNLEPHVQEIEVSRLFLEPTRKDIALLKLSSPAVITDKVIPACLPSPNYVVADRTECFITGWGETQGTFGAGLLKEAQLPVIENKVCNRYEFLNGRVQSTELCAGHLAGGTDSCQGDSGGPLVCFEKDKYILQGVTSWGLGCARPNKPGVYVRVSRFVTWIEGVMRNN

Question: Which results are given for `NCC1CCC(C(=O)[O-])CC1.NCC1CCC(C(=O)[O-])CC1.[Ca+2]` (stereo not drawn) [Ca-TA, Calcium Tranexamate]?
Answer: increase in volume or weight of clot, of its original weight (plasmin [1]; 3 percent Ca-TA, plasmin solution, on Day-1 and Day-2): more than 50%; Average Weight of fibrin clot (plasmin [1]; [3]): 113.0 mg; Fibrin clot weight, set A (plasmin [1]; [3]): 113 mg; Fibrin clot weight, set B (plasmin [1]; [3]): 113 mg; Fibrin clot weight, set C (plasmin [1]; [3]): 113 mg; percent degradation (plasmin [1]; [3]): 0%; Average Weight of fibrin clot (plasmin [1]; [4]): 179.7 mg; Fibrin clot weight, set A (plasmin [1]; [4]): 175 mg; Fibrin clot weight, set B (plasmin [1]; [4]): 160 mg; Fibrin clot weight, set C (plasmin [1]; [4]): 204 mg; Average Weight of fibrin clot (plasmin [1]; [5]): 185.0 mg; Fibrin clot weight, set A (plasmin [1]; [5]): 172 mg; Fibrin clot weight, set B (plasmin [1]; [5]): 174 mg; Fibrin clot weight, set C (plasmin [1]; [5]): 209 mg; Average Weight of fibrin clot (plasmin [1]; [6]): 123.3 mg; Fibrin clot weight, set A (plasmin [1]; [6]): 130 mg; Fibrin clot weight, set B (plasmin [1]; [6]): 100 mg; Fibrin clot weight, set C (plasmin [1]; [6]): 140 mg; Average Weight of fibrin clot (plasmin [1]; [7]): 0.0 mg; Fibrin clot weight, set A (plasmin [1]; [7]): 0 mg; Fibrin clot weight, set B (plasmin [1]; [7]): 0 mg; Fibrin clot weight, set C (plasmin [1]; [7]): 0 mg; percent degradation (plasmin [1]; [7]): 100%; increase in volume or weight of clot (fibrin clot): more than 50%; concentration adequate to give a stable clot without any significant degradation (plasmin [2]; same manner as FIG. 5 with Ca-TA (FIG. 12)): about 0.1 mE

Question: What does the source list for `NC[C@H]1CC[C@H](C(=O)O)CC1` [TA, trans-4-aminomethyl-cyclohexane-1-carboxylic acid]?
Answer: Average Weight of fibrin clot (plasmin [2]; [8]): 95.3 mg; Fibrin clot weight, set A (plasmin [2]; [8]): 96 mg; Fibrin clot weight, set B (plasmin [2]; [8]): 99 mg; Fibrin clot weight, set C (plasmin [2]; [8]): 91 mg; Percentage Degradation (plasmin [2]; [8]): 11.8%; Average Weight of fibrin clot (plasmin [2]; [9]): 98.0 mg; Fibrin clot weight, set A (plasmin [2]; [9]): 108 mg; Fibrin clot weight, set B (plasmin [2]; [9]): 104 mg; Fibrin clot weight, set C (plasmin [2]; [9]): 82 mg; Percentage Degradation (plasmin [2]; [9]): 9.3%; Average Weight of fibrin clot (plasmin [2]; [10]): 105.3 mg; Fibrin clot weight, set A (plasmin [2]; [10]): 102 mg; Fibrin clot weight, set B (plasmin [2]; [10]): 106 mg; Fibrin clot weight, set C (plasmin [2]; [10]): 108 mg; Percentage Degradation (plasmin [2]; [10]): 2.5%; Average Weight of fibrin clot (plasmin [2]; [11]): 104.7 mg; Fibrin clot weight, set A (plasmin [2]; [11]): 100 mg; Fibrin clot weight, set B (plasmin [2]; [11]): 108 mg; Fibrin clot weight, set C (plasmin [2]; [11]): 106 mg; Percentage Degradation (plasmin [2]; [11]): 3.0%; concentration sufficient for maximum activity (resistance against fibrin clot degradation by plasmin) (plasmin [2]; TA concentration, plasmin 6.6 μg/ml, 37° C., 48 hours): 0.1 mM; concentration sufficient for maximum activity, stated in ppm (plasmin [2]; plasmin 6.6 μg/ml, 37° C., 48 hours): 157 ppm

Question: How did the “Average Weight of fibrin clot” value (plasmin [1]; [12]) turn out when Aprotinin was run?
Answer: Its value is 109.13 mg.

Question: And the “Fibrin clot weight, set A” value (plasmin [1]; [12])?
Answer: Its value is 109.30 mg.

Question: And the “Fibrin clot weight, set B” value (plasmin [1]; [12])?
Answer: Its value is 108.50 mg.

Question: What about the “Fibrin clot weight, set C” value (plasmin [1]; [12]) of the same molecule?
Answer: The value was 109.60 mg.

Question: And the percent degradation (plasmin [1]; [12])?
Answer: The percent degradation was 0.00%.

Question: What about the “Average Weight of fibrin clot” value (plasmin [1]; [13]) of the same molecule?
Answer: Its value is 100.60 mg.

Question: And the “Fibrin clot weight, set A” value (plasmin [1]; [13])?
Answer: Its value is 100.20 mg.

Question: And the “Fibrin clot weight, set B” value (plasmin [1]; [13])?
Answer: Its value is 98.10 mg.

Question: What about the “Fibrin clot weight, set C” value (plasmin [1]; [13]) of the same molecule?
Answer: Its value is 103.50 mg.

Question: What about the percent degradation (plasmin [1]; [13]) of the same molecule?
Answer: The percent degradation was 7.82%.

Question: What about the “Average Weight of fibrin clot” value (plasmin [1]; [14]) of the same molecule?
Answer: The value was 15.03 mg.

Question: And the “Fibrin clot weight, set A” value (plasmin [1]; [14])?
Answer: Its value is 14.60 mg.

Question: And the “Fibrin clot weight, set B” value (plasmin [1]; [14])?
Answer: The value was 13.80 mg.

Question: What about the “Fibrin clot weight, set C” value (plasmin [1]; [14]) of the same molecule?
Answer: The value was 16.70 mg.

Question: And the percent degradation (plasmin [1]; [14])?
Answer: The percent degradation was 86.22%.

Question: And the “Average Weight of fibrin clot” value (plasmin [1]; [15])?
Answer: The value was 0.00 mg.

Question: What about the “Fibrin clot weight, set A” value (plasmin [1]; [15]) of the same molecule?
Answer: The value was 0.00 mg.

Question: And the “Fibrin clot weight, set B” value (plasmin [1]; [15])?
Answer: The value was 0.00 mg.

Question: And the “Fibrin clot weight, set C” value (plasmin [1]; [15])?
Answer: Its value is 0.00 mg.

Question: What about the percent degradation (plasmin [1]; [15]) of the same molecule?
Answer: The percent degradation was 100.00%.

Question: And the “Average Weight of fibrin clot” value (plasmin [1]; [16])?
Answer: The value was 0.00 mg.

Question: What about the “Fibrin clot weight, set A” value (plasmin [1]; [16]) of the same molecule?
Answer: Its value is 0.00 mg.

Question: What about the “Fibrin clot weight, set B” value (plasmin [1]; [16]) of the same molecule?
Answer: The value was 0.00 mg.

Question: And the “Fibrin clot weight, set C” value (plasmin [1]; [16])?
Answer: The value was 0.00 mg.

Question: And the percent degradation (plasmin [1]; [16])?
Answer: The percent degradation was 100.00%.
